Assays:
[1] = LC retention time (Atlantis T3, 5-95% MeOH gradient, 0.1% formic acid); higher = more retained / less polar
Outline: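 Retention times refer to reference standards measured by liquid chromatography with high-resolution tandem mass spectrometry. Separation was on an Atlantis T3 C18 column (3 × 150 mm, 3 μm) at 0.3 mL/min with a 5 to 95% methanol gradient over 17.5 min, both solvents carrying 0.1% formic acid. Positive and negative electrospray were run separately on a QExactive Plus, and TraceFinder peak integration (5 ppm tolerance, at least three points per peak) was reviewed by hand.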

[2] = absolute recovery over vacuum-assisted evaporative concentration; higher = better recovery; conditions: enrichment method: VEC
Outline: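 Samples of influent (6 mL), effluent (15 mL) and surface or nanopure water (60 mL) were spiked with standards before or after concentration, or left unspiked, at 200 ng/L (nanopure/surface) or 1000 ng/L (wastewater), adjusted by class and compound. Concentration was by evaporation at 55 °C and 20 mbar to about 0.3 mL, followed by adjustment to 0.4 mL and centrifugation. Internal standards were then added for LC-HRMS/MS analysis. Absolute recovery was (response ratio pre − unspiked)/(post − unspiked) × 100, using averages of ≥ 2 replicates.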

[3] = absolute recovery over mixed-bed multilayer solid-phase extraction; higher = better recovery; conditions: enrichment method: SPE
Outline: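 Elution from a three-layer mixed-bed cartridge used basic followed by acidic ethyl acetate/methanol, after loading either 1000 mL of unfiltered nanopure water or 100–250 mL of wastewater that had been set to pH 6.5 and glass-fibre filtered. Standards went in before or after extraction, or were left out, at 200 ng/L (water) or 1000 ng/L (wastewater), with class exceptions. Internal standards were added afterwards, and measurement was by liquid chromatography with high-resolution tandem mass spectrometry in both ionisation modes. For absolute recovery, background-corrected response ratios of pre-spiked samples were compared with those of post-spiked samples and averaged over at least two replicates.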

| absolute recovery ([3]; wastewater influent) [%] | SMILES | LC retention time [1] [min] | absolute recovery ([2]; wastewater effluent) [%] | absolute recovery ([2]; wastewater influent) [%] | absolute recovery ([3]; nanopure water) [%] | absolute recovery ([3]; surface water) [%] | absolute recovery ([3]; wastewater effluent) [%] |
| --- | --- | --- | --- | --- | --- | --- | --- |
| 102 | O=c1[nH+]c[n-]c2c1ncn2C1CCC(CO)O1 (centres undefined) [Didanosin] | 9.79 | 84.9 | – | 107 | 85.1 | 83.5 |
| 86.3 | CC(C)[NH2+]CC(O)COc1cccc2ccccc12 (centres undefined) [Propranolol] | 14.4 | 105 | 100 | 100 | 96.8 | 93.7 |
| 94.4 | O=C([O-])c1cc(Br)c([O-])c(Br)c1 [3-5-Dibromo-4-hydroxybenzoic-acid] | 17.6 | 104 | 99.2 | – | 92.6 | 97.9 |
| 96.4 | Cc1cc(O)nc(C(C)C)n1 [Pyrimidinol] | 11.8 | 108 | 108 | 76.8 | 81.4 | 85.3 |
| – | CCCCOCCOCCOCc1cc2c(cc1CCC)OCO2 [Piperonyl-butoxide] | 22.7 | 125 | 88.2 | 75.2 | 66.7 | 88.9 |
| – | CCCC1COC(Cn2cncn2)(c2ccc(Cl)cc2Cl)O1 (centres undefined) [Propiconazol] | 21.1 | 104 | 101 | 97.2 | 94.8 | 91.8 |
| 65.9 | COCC(=O)Nc1c(I)c(C(=O)NCC(O)CO)c(I)c(C(=O)N(C)CC(O)CO)c1I (centres undefined) [Iopromid] | 10.1 | 108 | 90.1 | 86.3 | 79.5 | – |
| 87.9 | Cc1cc(C)cc(OCC2CNC(=O)O2)c1 (centres undefined) [Metaxalone] | 17.8 | 95.8 | 99.2 | 104 | 85.9 | 87.1 |
| 93.7 | CCCC[NH+]1CCCCC1C(=O)Nc1c(C)cccc1C (centres undefined) [Bupivacaine] | 13.9 | 104 | 103 | 92 | 93.1 | 90.3 |
| 97.6 | Cc1cccc(C)c1N(Cn1cccn1)C(=O)CS(=O)(=O)[O-] [Metazachlor-ESA] | 17.5 | 102 | 104 | 98.7 | 95.6 | 96.8 |
| 65.1 | CC(=O)Nc1c(I)c(NC(C)=O)c(I)c(C(=O)[O-])c1I [Diatrizoate (=Amidotrizoic-acid)] | 10 | 100 | 102 | 69 | 74.5 | 73.8 |
| 92 | CC(C)[NH2+]CC(O)c1ccc(NS(C)(=O)=O)cc1 (centres undefined) [Sotalol] | 8.25 | 104 | 103 | 96.1 | 93 | 92.5 |
| 36 | O=C(NCC(O)CO)c1c(I)c(C(=O)NCC(O)CO)c(I)c(N(CCO)C(=O)CO)c1I (centres undefined) [Ioversol] | 7.88 | 83.7 | 86.5 | 55.7 | – | 57.2 |
| 4.3 | Nc1[nH]c(=O)ncc1F [5-Fluoro-Cytosine] | 3.63 | 107 | 58.4 | 4.4 | 5.9 | 5.4 |
| 84.6 | CCN(CC)C(=O)Nc1ccc(OCC(O)C[NH2+]C(C)(C)C)c(C(C)=O)c1 (centres undefined) [Celiprolol] | 13 | 103 | 103 | 86.4 | 84.3 | 90.1 |
| – | O=C([O-])c1ccccc1Nc1cccc(C(F)(F)F)c1 [Flufenamic-Acid] | 21.6 | 101 | 103 | 130 | 106 | 87.9 |

| SMILES | absolute recovery ([3]; wastewater influent) [%] | LC retention time [1] [min] | absolute recovery ([2]; wastewater effluent) [%] | absolute recovery ([2]; wastewater influent) [%] | absolute recovery ([3]; nanopure water) [%] | absolute recovery ([3]; surface water) [%] | absolute recovery ([3]; wastewater effluent) [%] |
| --- | --- | --- | --- | --- | --- | --- | --- |
| CCOP(=S)(OCC)Oc1cc(C)nc(C(C)C)n1 [Diazinon] | 82.8 | 21.1 | 27.1 | 18.9 | 77.6 | 86.9 | 80.5 |
| COC(=O)C(C)N(C(=O)Cc1ccccc1)c1c(C)cccc1C (centres undefined) [Benalaxyl] | 105 | 21.1 | 97.6 | 94.9 | 95.9 | 93 | 96 |
| O=C(Cc1ccccc1)NC(=NOCC1CC1)c1c(C(F)(F)F)ccc(F)c1F [Cyflufenamid] | 84.3 | 20.9 | 95.4 | 117 | 91.9 | 106 | 106 |
| COc1ccc(C(C[NH+](C)C)C2(O)CCCCC2)cc1 (centres undefined) [Venlafaxin] | 99.1 | 14 | 106 | 100 | 95.3 | 96.8 | 93.3 |
| CCCCCCCCn1sccc1=O [2-n-Octyl-4-isothiazolin-3-on (=OIT)] | 90.7 | 20.3 | 97.9 | 45.2 | 93 | 91.6 | 91.8 |
| N#Cc1c[nH]cc1-c1cccc2c1OC(F)(F)O2 [Fludioxonil] | 77 | 19.5 | 116 | 108 | 101 | 108 | 105 |
| CC(C)(C)C(O)(CCc1ccc(Cl)cc1)Cn1cncn1 (centres undefined) [Tebuconazol] | 94.3 | 20.9 | 106 | 99.8 | 98.5 | 94.7 | 96 |
| OC(Cc1ccccc1Cl)(Cn1cncn1)C1(Cl)CC1 (centres undefined) [Prothioconazole-desethio] | 104 | 20.6 | 141 | 128 | 109 | 86.3 | 104 |
| CCCCC(C#N)(Cn1cncn1)c1ccc(Cl)cc1 (centres undefined) [Myclobutanil] | 85.1 | 19.8 | 109 | 101 | 102 | 91.9 | 94 |
| C[NH+]1C2CCC1CC(OC(=O)C(CO)c1ccccc1)C2 (centres undefined) [Atropine] | 91.5 | 11.1 | 106 | 99.7 | 94.2 | 93.2 | 90.9 |
| CN1CC[NH+]=C(c2ccccc2)c2cc(Cl)ccc21 [Medazepam] | 68.8 | 14.5 | 103 | 109 | 83.9 | 95.2 | 93.6 |
| N#Cc1nn(-c2c(Cl)cc(C(F)(F)F)cc2Cl)c(N)c1SC(F)(F)F [Fipronil-sulfid] | 121 | 20.5 | 118 | 137 | 105 | 107 | 89.4 |
